Measured values from patent US20250312352A1, “GLP-1R MODULATING COMPOUNDS” (Gilead Sciences, Inc., priority 2021, published 2025).

target: T1, GLP-1R (Homo sapiens, UniProt P43220); assay: GLP-1R activation cAMP assay (Assay 1 or Assay 2); format: cell-based; details: cAMP increase in CHO cells stably expressing GLP-1R; compounds run on one of the two cAMP assays
T1 construct: host or cells: CHO cells
How it was run: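 EC50 values come from a sigmoidal fit of HTRF-detected cAMP rise versus log agonist concentration. GLP-1R-expressing CHO cells, equilibrated 1 h at 37 °C in HBSS with HEPES and BSA, received a 10-point compound dose series for 30 min before detection.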

T1 sequence (P43220 24-463): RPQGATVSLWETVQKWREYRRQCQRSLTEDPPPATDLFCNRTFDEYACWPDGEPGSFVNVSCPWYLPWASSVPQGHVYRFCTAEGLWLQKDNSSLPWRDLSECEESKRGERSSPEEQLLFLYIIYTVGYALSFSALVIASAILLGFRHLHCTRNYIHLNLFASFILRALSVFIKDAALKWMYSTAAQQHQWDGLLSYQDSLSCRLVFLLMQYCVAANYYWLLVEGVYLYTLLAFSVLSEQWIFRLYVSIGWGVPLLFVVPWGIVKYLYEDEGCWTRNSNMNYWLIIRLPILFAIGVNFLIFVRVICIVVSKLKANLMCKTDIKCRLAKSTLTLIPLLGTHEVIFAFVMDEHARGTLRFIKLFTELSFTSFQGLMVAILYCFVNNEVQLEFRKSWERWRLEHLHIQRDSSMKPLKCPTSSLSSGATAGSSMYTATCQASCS

Structure (SMILES)	EC50 [nM]
Cn1nccc1CNC(=O)c1cc(Cl)c(COc2cccc(-c3cc(F)c(Cc4nc5ccc(C(=O)O)cc5n4C[C@@H]4CCO4)cc3F)n2)cn1 [Example 195, (S)-2-(4-(6-((4-chloro-6-(((1-methyl-1H-pyrazol-5-yl)methyl)carbamoyl)pyridin-3-yl)methoxy)pyridin-2-yl)-2,5-difluorobenzyl)-1-(oxetan-2-ylmethyl)-1H-benzo[d]imidazole-6-carboxylic acid]	0.11
O=C(O)c1ccc2nc(Cc3cc(F)c(-c4cccc(OCc5nnc(-c6cnn(C7CC7)c6)s5)n4)cc3F)n(C[C@@H]3CCO3)c2c1 [Example 96, (S)-2-(4-(6-((5-(1-cyclopropyl-1H-pyrazol-4-yl)-1,3,4-thiadiazol-2-yl)methoxy)pyridin-2-yl)-2,5-difluorobenzyl)-1-(oxetan-2-ylmethyl)-1H-benzo[d]imidazole-6-carboxylic acid]	0.13
Cn1ccc(-c2cnc(COc3cccc(-c4cc(F)c(Cc5nc6ccc(C(=O)O)cc6n5C[C@@H]5CCO5)cc4F)n3)s2)n1 [Example 103, (S)-2-(2,5-difluoro-4-(6-((5-(1-methyl-1H-pyrazol-3-yl)thiazol-2-yl)methoxy)pyridin-2-yl)benzyl)-1-(oxetan-2-ylmethyl)-1H-benzo[d]imidazole-6-carboxylic acid]	0.23
CCOc1nnc(COc2nc(-c3cc(F)c(Cc4nc5ccc(C(=O)O)cc5n4[C@@H]4COCC4(C)C)cc3F)ccc2F)s1 [Example 424, (S)-1-(4,4-dimethyltetrahydrofuran-3-yl)-2-(4-(6-((5-ethoxy-1,3,4-thiadiazol-2-yl)methoxy)-5-fluoropyridin-2-yl)-2,5-difluorobenzyl)-1H-benzo[d]imidazole-6-carboxylic acid]	0.027
Cn1cc(-c2nnc(COc3cccc(-c4cc(F)c(Cc5nc6ccc(C(=O)O)cc6n5C[C@@H]5CCO5)cc4F)n3)s2)cn1 [Example 91, (S)-2-(2,5-difluoro-4-(6-((5-(1-methyl-1H-pyrazol-4-yl)-1,3,4-thiadiazol-2-yl)methoxy)pyridin-2-yl)benzyl)-1-(oxetan-2-ylmethyl)-1H-benzo[d]imidazole-6-carboxylic acid]	0.12

Further compounds by falling EC50, results first:

EC50 [nM]	Structure (SMILES)
17.9	COCCn1c(Cc2cc(F)c(-c3cccc(OCc4ccc(-c5cnn(C6CCNCC6)c5)nc4)n3)cc2F)nc2ccc(C(=O)O)cc21 [Example 229, 2-(2,5-difluoro-4-(6-((6-(1-(piperidin-4-yl)-1H-pyrazol-4-yl)pyridin-3-yl)methoxy)pyridin-2-yl)benzyl)-1-(2-methoxyethyl)-1H-benzo[d]imidazole-6-carboxylic acid]
0.89	O=C(O)c1ccc2nc(Cc3cc(F)c(-c4cccc(OCc5ncc(C6CC6)o5)n4)cc3F)n(C[C@@H]3CCO3)c2c1 [Example 63, (S)-2-(4-(6-((5-cyclopropyloxazol-2-yl)methoxy)pyridin-2-yl)-2,5-difluorobenzyl)-1-(oxetan-2-ylmethyl)-1H-benzo[d]imidazole-6-carboxylic acid]
0.36	Cc1cc(Cc2nc3c(F)cc(C(=O)O)cc3n2C[C@@H]2CCO2)c(F)cc1-c1cccc(OCc2ccc(C#Cc3cnn(C)c3)cc2F)n1 [Example 153, (S)-4-fluoro-2-(2-fluoro-4-(6-((2-fluoro-4-((1-methyl-1H-pyrazol-4-yl)ethynyl)benzyl)oxy)pyridin-2-yl)-5-methylbenzyl)-1-(oxetan-2-ylmethyl)-1H-benzo[d]imidazole-6-carboxylic acid]
0.14	NC(=O)c1cnc(COc2cccc(-c3cc(F)c(Cc4nc5ccc(C(=O)O)cc5n4C[C@@H]4CCO4)cc3F)n2)cn1 [Example 209, (S)-2-(4-(6-((5-carbamoylpyrazin-2-yl)methoxy)pyridin-2-yl)-2,5-difluorobenzyl)-1-(oxetan-2-ylmethyl)-1H-benzo[d]imidazole-6-carboxylic acid]
